Data reported in patent publication US20220074923A1, “METHODS OF IDENTIFYING PARKIN-MEDIATED MITOPHAGY ACTIVATING AGENTS” (THE GOVERNING COUNCIL OF THE UNIVERSITY OF TORONTO, priority 2018, published 2022).

What was measured:
[1] = tested on: HEK293 GFP Parkin cells; experiment: High throughput small molecule screen for Parkin recruitment to mitochondria (high content imaging); type: cell-based; details: for rank in the kinase inhibitor library screen (rank order by z-score): 4 μM, 16 h, then CCCP 2 h, rank out of 480, low rank = activator of Parkin recruitment, high rank = inhibitor
Method: 10 uL of 0.1 mg/mL Poly-D-Lys solution was added to 384-well plates for 5 minutes, followed by a PBS wash. Plates were dried for at least 2 hours. 50 μL of 600 000 HEK293 GFP Parkin cell/mL of DMEM was dispensed into each well. After 24 hours incubation to allow the cells to adhere, 200 nL of small molecules (or DMSO in columns 1, 2, 23 and 24) were pinned. Following a 16-hour incubation, 200 nL of 5 mM CCCP were added to all wells except columns 1 and 2, into which 200 nL of DMSO was added. Following 2-hour incubation, cells were fixed with 4% paraformaldehyde (PFA) and stained with 50 μL of 1 μg/mL DAPI solution for 15 minutes. After the final PBS wash, plates were ready for high content microscopy.
Images were acquired on IN Cell Analyzer 6000 (GE Healthcare), equipped with sCMOS camera (2048×2048), and 20x/0.45 NA Plan Fluor objective (Nikon) in open aperture mode using 1×1 binning. Image analysis was performed using Columbus Image Analysis System (PerkinElmer). Nuclei were initially detected in DAPI channel, followed by whole cell segmentation in GFP channel. Using PhenoLOGIC machine learning plug-in, cells were split into 2 sub-populations: cells with even GFP-Parkin distribution and cells where GFP-Parkin was localized to mitochondria. The percentage of cells with mitochondrial GFP-Parkin was determined per well. The molecules were then rank ordered based on z-score, which is calculated using the formula: […]
where x is the percentage of cells with mitochondrial GFP-Parkin for a specific small molecule, μ is the average percentage of cells with mitochondrial Parkin in positive control columns 23 and 24, where cells are treated with CCCP only.
These cell lines were screened across 2 biological replicates with compounds from the kinase inhibitor (n=480) and Prestwick (n=1120) collections. The 3-day screening protocol consisted of (1) seeding cells, (2) pinning small molecules at 4 μM concentration and (3) inducing mitophagy with CCCP, followed by processing of plates for high content imaging. Following image acquisition, DAPI staining was used to segment cells within each image. Supervised machine learning was used to classify cells into two classes: (1) cells with cytosolic Parkin distribution and (2) those with Parkin localized to mitochondria. […] Compounds which increased the proportion of class 2 cells across 2 biological replicates, compared to the CCCP-only treated cells (FIG. 10), as indicated by their z-score (FIG. 11), were considered hits.

[2] = tested on: Canton(S) flies; type: in vivo, Drosophila; details: 10 mM paraquat in food
Method: Fresh vials containing standard fly food supplemented with the indicated treatments were changed out every 2 days. The number of flies surviving each day was counted and log-rank tests were performed to determine statistical significance. […] The number of flies to climb beyond 9.5 cm every 10 seconds was assessed. The percentage of flies in each treatment to cross this line was determined. The climbing ability of each treatment was normalized to the control group treated with water only. […] Log-rank tests were performed to determine p-values for survival analyses (a, b, g), *P<0.05. P-values were determined by one-tailed paired student's t-test for all climbing assays (c-e, h), *P<0.05. Data is expressed as mean±s.e.m. All error bars represent s.e.m
Drosophila aged 7 days are fed food supplemented with either water (control), 1 mM SR3677, 10 mM paraquat or SR3677 in combination with paraquat. The survival of flies was recorded each day following administration of the treatments and climbing abilities were tested every 2 days by performing negative geotaxis assays.

[3] = tested on: differentiated SH-SY5Y cells; experiment: Cell viability determination (ATP levels normalized to protein); type: cell-based; details: 500 μM, 24 hours
Method: SH-SY5Y cells were differentiated according to previously established protocol consisting of sequential treatment with retinoic acid followed by brain-derived neurotrophic factor^10. Cells were then seeded into white 96-well plates with white bottom and allowed to adhere overnight. Varying doses of SR3677 were combined with 500 μM paraquat and administered for 24 hours. Controls treated with 0.5 μM SR3677, equivalent volume DMSO and paraquat alone were also included. Following 24-hour incubation, cell media was aspirated and THE lysis buffer (50 mM Tris-HCl, 100 mM NaCl, 0.1 mM EDTA) containing protease inhibitor cocktail was added to each well. Half of the lysate volume was removed and aliquoted into a separate 96-well plate. ATP levels were measured in the opaque plate using the ATP determination (ThermoFisher A22066) assay kit and protein concentrations were measured using the Pierce BCA (ThermoFisher #23225) assay kit. ATP levels were normalized to protein concentration and then by the ratio for cells treated with paraquat alone in a control well on each plate.

[4] = tested on: S2R+ cells; experiment: mitoSOX mitochondrial superoxide staining; type: cell-based; details: toxin alone
Method: A) Staining was performed with mitoSOX Red Mitochondrial Superoxide dye. B) Quantification of the fluorescence intensity of the mitoSOX probe in the indicated treatments (n=3). Data is presented as mean±s.e.m. P-values were determined by paired student's t-test, *P-value<0.05.
Whether SR3677 may protect against paraquat-induced phenotypes by interfering with paraquat's activity was also assessed. Paraquat gives rise to mitochondrial superoxide species that can be detected using mitoSOX, a fluorescent probe that is targeted to mitochondria, where it may be oxidized by superoxides. The oxidized mitoSOX species fluoresces upon encountering nucleic acid. The fluorescence intensity of Schneider's S2-R^+ cells, a cell line derived from dissociated embryos with a flat morphology amenable to imaging, was assessed following treatments with paraquat or paraquat and SR3677.

[5] = tested on: Drosophila; type: in vivo; details: Canton(S), 10 mM paraquat
Method: Fresh vials containing standard fly food supplemented with the indicated treatments were changed out every 2 days. The number of flies surviving each day was counted and log-rank tests were performed to determine statistical significance. 20 flies per treatment, n=5 (c) The climbing ability of flies treated as described in (a and bin) was assessed 4 days following initial administration of treatments. The number of flies to climb beyond 9.5 cm every 10 seconds was assessed. The percentage of flies in each treatment to cross this line was determined. The climbing ability of each treatment was normalized to the control group treated with water only. 20 flies per treatment, n=5. (d) The climbing ability of UAS-park^RNAi and ddc-GAL4>UAS-park^RNAi flies fed either paraquat or paraquat in combination with SR3677. 20 flies per treatment, n=7. (e) Proteins lysates from UAS-park^RNAi or tubulin>UAS-park^RNAi whole flies were separated by SDS-PAGE. Immunoblotting with anti-Parkin and anti-actin antibody was performed. (f) The climbing ability of TH-GAL flies fed either paraquat or paraquat in combination with SR3677. (g) Survival of heteroplasmic mt:Coll^T300l flies fed fly food supplemented with water or 2 mM SR3677 and wild-type Canton(S) flies (n=3 independent experiments). (h) The climbing ability of heteroplasmic mt:Coll^T300l flies fed either water or 2 mM SR3677 for 7 days. Log-rank tests were performed to determine p-values for survival analyses (a, b, g), *P<0.05. P-values were determined by one-tailed paired student's t-test for all climbing assays (c-e, h), *P<0.05. Data is expressed as mean±s.e.m. All error bars represent s.e.m
Male Canton(S) Drosophila were aged 7 days prior to feeding with standard fly food supplemented with water, 10 mM paraquat, 1 mM SR3677, or with combinations of these chemicals. Flies were placed into new vials containing fresh food supplemented with the treatments previously administered and 2 days later, climbing assays were performed. Flies were placed into plastic cylinder vials and tapped down, so all flies fell to the bottom. The number of flies to climb beyond 12.5 cm was counted every 10 s and values are represented as the percentage of total flies in each treatment group.

[6] = tested on: HEK293 GFP Parkin cells; experiment: Parkin recruitment assay; type: cell-based
Method: HEK293 GFP Parkin cells were seeded into 12-well plates containing coverslips. Cells were treated with small molecules for 2 hours prior to mitophagy induction with 10 μM CCCP, unless indicated otherwise. Following fixation with 4% PFA, immunostaining was carried out using anti-ATP5A primary antibody and anti-mouse Alex Fluor 568.
To measure the percentage of cells with Parkin localized to mitochondria a 2 step process was employed: (1) whole cell segmentation based on GFP Parkin using CellProfiler software and (2) classification into Parkin distribution subpopulation using CellProfiler Analyst. The percentage of cells with Parkin localized to mitochondria was determined in each image. Images were taken at 20× magnification for this experiment, resulting in the classification of at least 300 cells in each treatment group per trial.

[7] = cited from earlier work
[8] = tested on: HEK293 GFP Parkin cells; experiment: Immunoblotting of mitochondrial protein degradation after CCCP; type: cell-based; details: 10 μM CCCP
Method: (a) HEK293 GFP Parkin cells were treated with varying doses of SR3677 for 2 hours prior to induction of mitophagy with 10 μM CCCP for one hour. The percentage of cells with mitochondrial Parkin increased in a dose-dependent manner. […] Cell lysates were harvested, proteins were separated by SDS-PAGE and immunoblotting was performed with anti-Mfn2 and anti-actin antibodies. (c) Ponceau VDAC1 levels in each sample normalized to Ponceau staining. (d) Mfn2/actin levels in CCCP treated cells. (e) Densitometry analysis was performed to quantify Mfn2 and VDAC1 levels in each sample (n=4 independent experiments).
HEK293 GFP Parkin cells co-treated with 0.5 μM SR3677 or DMSO and 10 μM CCCP for the indicated time (hours). Cell lysates were separated by SDS-PAGE and immunoblotting was performed to assess turnover of IMM/matrix substrates (A) ATP5A, (B) UQCRC2 and (C) COXIV. Densitometry analysis was performed. Protein levels were normalized to Ponceau. Data is expressed as mean±s.e.m (n=6, 7 and 8 for a, b and c, respectively. 4) P-values were determined by paired student's t-test, *P<0.05.
Lysates were harvested using lysis buffer (0.1M Tris HCl, 0.01% SDS, pH 9) with 1× protease inhibitor cocktail (BioShop, PIC002.1). Lysates were then heated at 95° C. for 20 minutes with vortexing performed at 5-minute intervals. The BCA assay (Pierce, 23227) was performed to determine protein concentration, to standardize protein loading across samples to be compared. 12% SDS-PAGE gels were used to run samples to be analyzed for LC3 conversation and for Tom20 and 10% gels were run for all other samples. Transfer of proteins onto PVDF membrane (Immobilon, IPVH00010) was performed at 110V for 80 minutes or at 36V for 8 hours. Membranes were blocked with 5% skim milk in TBST (1×TBS, 0.1% Tween-20 [BioShop, 1M23298]) for 30 minutes prior to incubation in primary antibodies at a dilution of 1:1000 for all antibodies except anti-ROCK2 and anti-LC3, which were used at a dilution of 1:5000. Visualization of proteins was performed using ECL (BioRad, 11705062).
Densitometry was performed by normalizing bands corresponding to the protein of interest to a loading control such as actin using ImageLab 6.0 software (BioRad).

[9] = biological target: ROCK2 (Homo sapiens, UniProt O75116); details: biochemical and cell-based assays, previous studies; cited from earlier work
Sequence of ROCK2 (O75116 whole entry): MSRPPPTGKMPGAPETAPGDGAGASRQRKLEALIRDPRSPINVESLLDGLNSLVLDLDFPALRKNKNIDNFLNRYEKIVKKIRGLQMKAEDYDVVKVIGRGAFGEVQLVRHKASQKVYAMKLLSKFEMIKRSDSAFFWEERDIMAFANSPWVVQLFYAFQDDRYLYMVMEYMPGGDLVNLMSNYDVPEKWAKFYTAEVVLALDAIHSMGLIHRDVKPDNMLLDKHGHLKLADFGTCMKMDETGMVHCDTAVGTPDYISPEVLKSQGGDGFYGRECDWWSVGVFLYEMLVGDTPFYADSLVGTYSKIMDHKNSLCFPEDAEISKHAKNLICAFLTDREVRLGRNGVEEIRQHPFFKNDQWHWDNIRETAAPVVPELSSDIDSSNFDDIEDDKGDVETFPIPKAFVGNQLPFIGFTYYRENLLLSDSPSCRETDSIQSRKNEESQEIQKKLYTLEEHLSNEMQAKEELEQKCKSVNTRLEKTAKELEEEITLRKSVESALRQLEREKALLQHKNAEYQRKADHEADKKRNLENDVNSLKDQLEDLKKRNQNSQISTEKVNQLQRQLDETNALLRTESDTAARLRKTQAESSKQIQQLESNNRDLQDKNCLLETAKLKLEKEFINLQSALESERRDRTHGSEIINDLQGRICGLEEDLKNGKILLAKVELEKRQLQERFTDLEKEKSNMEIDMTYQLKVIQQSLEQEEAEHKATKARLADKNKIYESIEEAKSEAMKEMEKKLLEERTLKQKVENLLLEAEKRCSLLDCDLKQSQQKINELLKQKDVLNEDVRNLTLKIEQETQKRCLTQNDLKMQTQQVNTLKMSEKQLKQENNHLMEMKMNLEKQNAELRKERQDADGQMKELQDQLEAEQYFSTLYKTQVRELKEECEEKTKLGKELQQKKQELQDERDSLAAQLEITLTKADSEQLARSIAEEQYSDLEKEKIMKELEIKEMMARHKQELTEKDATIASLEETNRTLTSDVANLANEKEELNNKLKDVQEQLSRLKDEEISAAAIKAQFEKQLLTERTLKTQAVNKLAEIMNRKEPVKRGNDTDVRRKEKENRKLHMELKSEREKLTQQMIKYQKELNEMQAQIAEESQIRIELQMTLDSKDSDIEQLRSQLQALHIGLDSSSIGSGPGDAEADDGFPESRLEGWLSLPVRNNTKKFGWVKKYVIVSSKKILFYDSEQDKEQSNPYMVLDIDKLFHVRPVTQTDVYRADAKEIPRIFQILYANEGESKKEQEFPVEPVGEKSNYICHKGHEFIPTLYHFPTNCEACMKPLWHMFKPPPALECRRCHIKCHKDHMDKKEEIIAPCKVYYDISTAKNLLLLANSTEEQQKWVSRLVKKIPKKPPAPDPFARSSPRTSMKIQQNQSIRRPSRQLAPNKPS

NC(=O)Nc1cc(-c2cccc(F)c2)sc1C(=O)N[C@H]1CCCNC1 [AZD-7762]
rank in the kinase inhibitor library screen (rank order by z-score) [1]: 413/480

O=c1[nH]c2ccc(Cl)cc2c(N[C@@H]2CN3CCC2CC3)c1-c1nc2ccccc2[nH]1 [CHIR-124]
rank in the kinase inhibitor library screen (rank order by z-score) [1]: 403/480

NC(=O)c1ccc2nc(-c3ccc(Oc4ccc(Cl)cc4)cc3)[nH]c2c1 [Chk2 inhibitor II]
rank in the kinase inhibitor library screen (rank order by z-score) [1]: 402/480

C[n+]1ccc(-c2cc[n+](C)cc2)cc1 [Paraquat]
survival of flies, paraquat alone [2]: reduced
cell viability, paraquat alone [3]: reduced the viability of cells
fluorescence intensity of mitoSOX [4]: increases the fluorescence intensity of mitoSOX
climbing ability, paraquat alone [5]: impairs the climbing ability of flies over time

CN[C@@H]1C[C@H]2O[C@@](C)([C@@H]1OC)n1c3ccccc3c3c4c(c5c6ccccc6n2c5c31)C(=O)NC4 [Staurosporine]
position among hits of the screen ([1]; known activator of Parkin-mediated mitophagy): ≤ 0.3%

Cc1cnc(Nc2ccc(OCCN3CCCC3)cc2)nc1Nc1cccc(S(=O)(=O)NC(C)(C)C)c1 [TG-101348]
rank in the kinase inhibitor library screen (rank order by z-score) [1]: 418/480

C[C@@H](N)c1ccc(C(=O)Nc2ccnc3[nH]ccc23)cc1 [Y39983]
Parkin recruitment on re-test ([6]; 10 μM, 2-hour treatment, CCCP): recapitulated the effects observed following overnight incubation
Parkin distribution in the absence of CCCP ([6]; compound alone): diffuse
rank in the kinase inhibitor library screen (rank order by z-score) [1]: 5/480
cell permeability [7]: poor cell permeability
concentration administered to enhance Mfn2 degradation [8]: 10 µM
Mfn2 degradation following CCCP ([8]; 2 h pre-treatment, Y39983 10 μM, SR3677 0.5 μM): Increased degradation of Mfn2
ROCK2 inhibition [9]: sufficiently inhibit both ROCK1 and ROCK2

CC(C)(C)OO [luperox]
fluorescence intensity of mitoSOX [4]: increases the fluorescence intensity of mitoSOX

O=C(Nc1ccncc1)Nc1c(Cl)cc(Cl)cc1Cl [rho kinase inhibitor II]
class in the screen (FIG. 1b) ([1]; ROCK inhibitors, 4 μM plus CCCP): Enhancers of Parkin recruitment
